According to publication PMC4787783 (2015):

Experiments:
[1] = system: Bulges-TB1 (RNA, G4) UUGUGGUGGGUGGGUGGGU; assay: fluorescence enhancement
[2] = system: Spinach (RNA, aptamer) GCAGCCGGCUUGUUGAGUAGAGUGUGAGCUCCGUAACUGGUCGCGUC/GACGCGACCGAAUGAAAUGGUGAAGGACGGGUCCAGCCGGCUGC; assay: fluorescence enhancement
[3] = system: tRNA-Cys fragment (RNA, G4) GGGGGUAUAGCUCAGUGGUAGAGCAUUUGA; assay: fluorescence enhancement
[4] = system: tRNA-Ala fragment (RNA, G4) GGGGGUGUAGCUCAGUGGUAGAGCGCGUGC; assay: fluorescence enhancement
[5] = system: Tel22-mut (RNA, single strand) AGUGUUAGUGUUAGUGUUAGUG; assay: fluorescence enhancement; details: 40 mM K+; 20 mM Tris-HCl pH 7.0; 2 µM CyT, 4 µM RNA; very weak fluorescence
[6] = system: NRAS-mut (RNA, single strand) GUGAGUUGCGUGUCUGUG; assay: fluorescence enhancement; details: 40 mM K+; 20 mM Tris-HCl pH 7.0; 2 µM CyT, 4 µM RNA; very weak fluorescence
[7] = system: 3-WJ (RNA, junction) AGCGCAACCCC/UCGUCAGCU/GGGACGACGU; assay: fluorescence enhancement; details: 40 mM K+; 20 mM Tris-HCl pH 7.0; 2 µM CyT, 4 µM RNA; very weak fluorescence
[8] = system: 4-WJ (RNA, junction) GCGC/UUUAGC/GAGGUCCU/AGAA; assay: fluorescence enhancement; details: 40 mM K+; 20 mM Tris-HCl pH 7.0; 2 µM CyT, 4 µM RNA; very weak fluorescence
[9] = system: Tel22 (RNA, G4) AGGGUUAGGGUUAGGGUUAGGG; assay: fluorescence titration, 1:1 fit; details: 40 mM K+; 20 mM Tris-HCl pH 7.0, 25 °C; 2 µM CyT
[10] = system: VEGF (RNA, G4) GGAGGAGGGGGAGGAGGA; assay: fluorescence titration, 1:1 fit; details: 40 mM K+; 20 mM Tris-HCl pH 7.0, 25 °C; 2 µM CyT
[11] = system: TRF2 (RNA, G4) CGGGAGGGCGGGGAGGGC; assay: fluorescence titration, 1:1 fit; details: 40 mM K+; 20 mM Tris-HCl pH 7.0, 25 °C; 2 µM CyT
[12] = system: BCL-2 (RNA, G4) AGGGGGCCGUGGGGUGGGAGCUGGGG; assay: fluorescence titration, 1:1 fit; details: 40 mM K+; 20 mM Tris-HCl pH 7.0, 25 °C; 2 µM CyT
[13] = system: NRAS (RNA, G4) GGGAGGGGCGGGUCUGGG; assay: fluorescence titration, 1:1 fit; details: 40 mM K+; 20 mM Tris-HCl pH 7.0, 25 °C; 2 µM CyT
[14] = system: ssAf17 (RNA, single strand) CUGAGUUGUAUAUAUUCG; assay: fluorescence titration, 1:1 fit; details: 40 mM K+; 20 mM Tris-HCl pH 7.0, 25 °C; 2 µM CyT
[15] = system: ssAf22 (RNA, single strand) UGAGCUUAAUUGUAUAUAUUCG; assay: fluorescence titration, 1:1 fit; details: 40 mM K+; 20 mM Tris-HCl pH 7.0, 25 °C; 2 µM CyT
[16] = system: HP18 (HP-18) (RNA, hairpin) CAGUACAGAUCUGUACUG; assay: fluorescence titration, 1:1 fit; details: 40 mM K+; 20 mM Tris-HCl pH 7.0, 25 °C; 2 µM CyT
[17] = system: dsNC (RNA, duplex) UUGUGCUACCAGGAGUCUG/CAGACUCCUGGUAGCACAA; assay: fluorescence titration, 1:1 fit; details: 40 mM K+; 20 mM Tris-HCl pH 7.0, 25 °C; 2 µM CyT
[18] = system: Tel22 (RNA, G4) AGGGUUAGGGUUAGGGUUAGGG; assay: fluorescence enhancement; details: about 290-fold enhancement
[19] = system: VEGF (RNA, G4) GGAGGAGGGGGAGGAGGA; assay: fluorescence enhancement; details: about 200-fold enhancement
[20] = system: ssAf17 (RNA, single strand) CUGAGUUGUAUAUAUUCG; assay: fluorescence enhancement; details: about 100-fold enhancement
[21] = system: HP18 (HP-18) (RNA, hairpin) CAGUACAGAUCUGUACUG; assay: fluorescence enhancement; details: about 330-fold enhancement

Q: Which binding ([1]; 40 mM K+, 20 mM Tris-HCl pH 7.0, 2 µM CyT, 4 µM RNA, about 1800-fold enhancement) does the source give for CC(=Cc1sc2ccc3ccccc3c2[n+]1CCCS(=O)(=O)[O-])C=C1Sc2ccc3ccccc3c2N1CCCS(=O)(=O)O here?
A: yes

Q: What about the binding ([2]; 40 mM K+, 20 mM Tris-HCl pH 7.0, 2 µM CyT, 4 µM RNA, about 327-fold enhancement) of the same compound?
A: yes

Q: What about the binding ([3]; 40 mM K+, 20 mM Tris-HCl pH 7.0, 2 µM CyT, 4 µM RNA, about 205-fold enhancement) of the same compound?
A: yes

Q: What about the binding ([4]; 40 mM K+, 20 mM Tris-HCl pH 7.0, 2 µM CyT, 4 µM RNA, about 200-fold enhancement) of the same compound?
A: yes

Q: And the binding [5]?
A: weak

Q: And the binding [6]?
A: weak

Q: And the binding [7]?
A: weak

Q: And the binding [8]?
A: weak

Q: And the binding constant [9]?
A: (1.17 ± 0.37) × 10^5 M^-1

Q: And the binding constant [10]?
A: (1.44 ± 0.29) × 10^5 M^-1

Q: What about the binding constant [11] of the same compound?
A: (2.81 ± 0.63) × 10^5 M^-1

Q: And the binding constant [12]?
A: (1.94 ± 0.29) × 10^5 M^-1

Q: What about the binding constant [13] of the same compound?
A: (3.49 ± 0.77) × 10^5 M^-1

Q: What about the binding constant [14] of the same compound?
A: (4.40 ± 0.38) × 10^4 M^-1

Q: And the binding constant [15]?
A: (4.03 ± 0.36) × 10^4 M^-1

Q: What about the binding constant [16] of the same compound?
A: (2.89 ± 0.28) × 10^4 M^-1

Q: And the binding constant [17]?
A: (2.42 ± 0.25) × 10^4 M^-1

Q: What does the source list for CN1C(=Cc2cc[n+](C)c3ccccc23)Sc2ccccc21?
A: binding [18]: yes; binding [19]: yes; binding [20]: yes; binding [21]: yes; binding ([1]; about 570-fold enhancement): yes; binding ([2]; about 200-fold enhancement): yes; binding ([3]; about 150-fold enhancement): yes; binding ([4]; about 230-fold enhancement): yes
